One block for each compound: values may come before it.
Tests used:
[1] = tested on: SW780 bladder cancer cell line; experiment: CellTiter-Glo viability assay, SW780; type: cell-based; conditions: 72 hours (FIG. 12)
Description: (§1) Cellular viability was assessed using the CellTiter-Glo Luminescent Cell Viability Assay (Promega) according to manufacturer protocols. Bladder cancer cell lines were seeded into 96-well plates based on optimal growth rates determined empirically for each line. Twenty-four hours after plating, cells were dosed with graded concentrations of ganetespib for 72 hours. CellTiter-Glo was added (50% v/v) to the cells, and the plates incubated for 10 minutes prior to luminescent detection in a SpectraMax Plus 384 microplate reader (Molecular Devices). Data were normalized to percent of control and IC50 values used to determine the sensitivity of each line. For the comparative analyses with ganetespib and BGJ398, RT112 cells were treated with graded concentrations of each compound for 72 hours and cell viability measured as above. For the evaluation of apoptotic induction, caspase activity was assessed using the Caspase-Glo 3/7 assay (Promega) according to manufacturer protocols. Twenty-four hours after plating, RT112 cells were treated with graded concentrations of ganetespib for 24 hours. Caspase-Glo was added to cells (50% v/v) and the plates incubated for 1 hour prior to luminescent detection.

RT112 xenografts = experiment: RT112 xenograft tumor model; type: in vivo; conditions: BGJ398 10 mg/kg p.o. daily, 3 weeks
Description: CD-1 nude mice (Charles River Laboratories, Wilmington, Mass.) at 7-12 weeks of age were maintained in a pathogen-free environment and all in vivo procedures were approved by the Synta Pharmaceuticals Corp. Institutional Animal Care and Use Committee. RT112 cells (5×10^6) were subcutaneously implanted into female mice and animals bearing established tumors (˜150 mm^3) were randomized into treatment groups of 8. Mice were i.v. dosed with ganetespib (150 mg/kg) once weekly or p.o. dosed with BGJ398 (10 mg/kg) daily, either alone or in combination, for 3 weeks. Tumor growth inhibition was monitored by tumor volume measurements twice weekly. As a measurement of in vivo efficacy, the % T/C value was determined from the change in average tumor volumes of each treated group relative to the vehicle treated animals. Statistical significance was determined using two-way ANOVA followed by Bonferroni post tests.

[2] = tested on: RT112 bladder cancer cell line; experiment: CellTiter-Glo viability assay, RT112; type: cell-based; conditions: Homo sapiens, RT-112, 72-hour combination viability assay, single inhibitor, read-out: approximate IC50 concentrations
Description: as §1

[3] = tested on: FGFR3-TAAC3 in RT112 cells; experiment: Western blotting of FGFR3-TAAC3 and signaling proteins in RT112 cells; type: cell-based; conditions: 100 nM, 24 hours
Description: Following in vitro assays, tumor cells were disrupted in lysis buffer on ice for 10 minutes. Lysates were clarified by centrifugation and equal amounts of proteins resolved by SDS-PAGE before transfer to nitrocellulose membranes (Bio-Rad). Membranes were blocked with StartingBlock T20 blocking buffer (Thermo Scientific) and immunoblotted with the indicated antibodies. Antibody-antigen complexes were visualized using an Odyssey system (LI-COR).

[4] = tested on: RT4 bladder cancer cell line; experiment: CellTiter-Glo viability assay, RT4; type: cell-based; conditions: 72 hours (FIG. 8), read-out: IC50 values
Description: as §1

SMILES: C=CCNC1=C2C[C@@H](C)C[C@H](OC)[C@H](O)[C@@H](C)/C=C(\C)[C@H](OC(N)=O)[C@@H](OC)/C=C\C=C(/C)C(=O)NC(=CC1=O)C2=O [17-AAG, 17-allylamino-17-demethoxygeldanamycin]
cytotoxicity / sensitivity of cells (in words) [1]: acutely sensitive

SMILES: CCN1CCN(c2ccc(Nc3cc(N(C)C(=O)Nc4c(Cl)c(OC)cc(OC)c4Cl)ncn3)cc2)CC1 [BGJ398, reference compound]
T/C value (RT112 xenografts): −20% | IC50 [2]: ~5 nM | total FGFR3-TAAC3 expression [3]: did not affect

SMILES: CO[C@H]1/C=C\C=C(/C)C(=O)NC2=CC(=O)C(NCCN(C)C)=C(C[C@@H](C)C[C@H](OC)[C@H](O)[C@@H](C)/C=C(\C)[C@@H]1OC(N)=O)C2=O [17-DMAG, 17-dimethylaminoethylamino-17-demethoxygeldanamycin]
cytotoxicity / sensitivity of cells (in words) [1]: acutely sensitive

IC50 [4]: > 1000 nM
SMILES: CCNC(=O)c1noc(-c2cc(C(C)C)c(O)cc2O)c1-c1ccc(CN2CCOCC2)cc1 [AUY922]

Source: patent US20160324863A1, “TARGETED CANCER TREATMENT BY HSP90 INHIBITORS GANETESPIB AND NVP-AUY922” (SYNTA PHARMACEUTICALS CORP., priority 2014, published 2016)
